Measured values from patent US6482947B1, “Substituted (hetero) aryl compounds, process for their preparation, agents containing them and their use as safeners” (priority 1992, dated 2002).

Legend:
Hordeum vulgare (barley) = assay: Safener action on barley, post-emergence greenhouse test, visual damage assessment; settings: no safener
Protocol: (§1) Seeds of wheat and barley were placed in sandy loam soil in plastic pots, raised to the 3- to 4-leaf stage in a greenhouse and then treated successively with the compounds according to the invention and the herbicides using the post-emergence method. The herbicides and the compounds of the formula I were applied in the form of aqueous suspensions or emulsions at an application rate of 300 l/ha (converted). 3-4 weeks after the treatment, the plants were assessed visually for damage of any type caused by the herbicides applied, in particular the extent of lasting growth inhibition being taken into account. The assessment was made in percentages compared with untreated controls.
(§2) Test conditions: Application at the 4-leaf stage; assessment after 4 weeks; 4 replications
Test conditions: Application at the 3-leaf stage;
assessment after 2-3 weeks; 4 replications

corn (Zea mays) [1] = assay: Safener action on corn, post-emergence test, visual damage assessment; format: in vivo; settings: no safener, 4-leaf stage, assessment after 4 weeks; for Damage [%] in corn varieties: Felix: variety Felix; for Damage [%] in corn varieties: Mutin: variety Mutin; for Damage [%] in corn varieties: Dea: variety Dea
Description: Corn plants, weed and weed grasses were raised to the 4- to 5-leaf stage in plastic pots outside or in the greenhouse and treated successively with herbicides and compounds of the formula I according to the invention using the post-emergence method. […] The assessment was made in percent compared with untreated controls.

corn (Zea mays) [2] = assay: as above; format: in vivo; settings: herbicide 75 g of a.i./ha, no safener; 3-leaf stage, assessment after 3 weeks
[3] = system: Oryza sativa (transplanted); assay: Safener action on transplanted rice, application by watering, visual damage assessment; format: in vivo; settings: herbicide 450 g of a.i./ha, no safener, 3 days after transplanting, assessed 4 weeks after application
Protocol: Rice was sown in sandy soil in pots in a greenhouse and raised to a growth height of 24-25 cm. The rice was then transplanted into a water-covered soil and, 3 days after transplanting, treated with a herbicide or a herbicide/safener combination by watering. 4 weeks after application, plant damage was assessed visually compared with untreated controls (results see Table 9).

Oryza sativa (rice) = assay: Safener action on rice (flooded pots), damage assessment; format: in vivo; settings: herbicide 300 g of a.i./ha, no safener; 3-leaf stage, assessment after 3 weeks
Protocol: Rice was sown in plastic pots and raised in a greenhouse under optimum growth conditions. After emergence, the pots were filled with water to 2 cm from the top, and this flooding level was maintained throughout the experiment. At the 3- to 4-leaf stage, the plants were then treated with the herbicides and the compounds of the formula I. 3 weeks after treatment, the plants were assessed for damage of any type caused by the herbicides, in particular the extent of lasting growth inhibition and thinning being considered.

[4] = system: Triticum durum (hard wheat); assay: Safener action on hard wheat, post-emergence greenhouse test, visual damage assessment; format: in vivo; settings: no safener, 4-leaf stage, assessment after 4 weeks
Protocol: as §1, §2

[5] = system: Triticum aestivum (wheat); assay: Safener action on wheat, post-emergence greenhouse test, visual damage assessment; format: in vivo; settings: no safener, 4-leaf stage, assessment after 4 weeks
Protocol: as §1, §2

In the case of `COC(=O)C(C)Oc1ccc(Oc2ccc(Cl)cc2Cl)cc1` (stereo not shown) [H2, diclofop-methyl], the “Damage [%] HV” value (Hordeum vulgare (barley); herbicide 900 g of a.i./ha, 4-leaf stage, assessment after 4 weeks) was 10% and the “Damage [%] HV” value (Hordeum vulgare (barley); herbicide 1800 g of a.i./ha, 4-leaf stage, assessment after 4 weeks) was 40%.
For `COC(=O)c1sccc1NC(=O)Nc1nc(C)nc(OC)n1` [H7, 1-(2-methoxycarbonylthiophen-3-yl)-3-(4-methoxy-6-methyl-1,3,5-triazin-2-yl)urea], the “Damage [%] in corn varieties: Felix” value (corn (Zea mays) [1]; herbicide 8 g a.i./ha) was 0%, the “Damage [%] in corn varieties: Felix” value (corn (Zea mays) [1]; herbicide 15 g a.i./ha) was 15% and the “Damage [%] in corn varieties: Felix” value (corn (Zea mays) [1]; herbicide 30 g a.i./ha) was 40%. The “Damage [%] in corn varieties: Felix” value (corn (Zea mays) [1]; herbicide 60 g a.i./ha) was 75%, the “Damage [%] in corn varieties: Mutin” value (corn (Zea mays) [1]; herbicide 8 g a.i./ha) was 5% and the “Damage [%] in corn varieties: Mutin” value (corn (Zea mays) [1]; herbicide 15 g a.i./ha) was 10%. The “Damage [%] in corn varieties: Mutin” value (corn (Zea mays) [1]; herbicide 30 g a.i./ha) was 30% and the “Damage [%] in corn varieties: Mutin” value (corn (Zea mays) [1]; herbicide 60 g a.i./ha) was 70%.
In the case of `COc1cc(OC)nc(NC(=O)NS(=O)(=O)c2ncccc2N(C)S(C)(=O)=O)n1` [H8, 3-(4,6-dimethoxypyrimidin-2-yl)-1-[3(-N-methyl-N-methylsulfonylamino)-2-pyridylsulfonyl]urea], the “Damage [%] in corn varieties: Dea” value (corn (Zea mays) [1]; herbicide 25 g a.i./ha) was 0%, the “Damage [%] in corn varieties: Dea” value (corn (Zea mays) [1]; herbicide 50 g a.i./ha) was 0% and the “Damage [%] in corn varieties: Dea” value (corn (Zea mays) [1]; herbicide 100 g a.i./ha) was 10%. For the same compound, the “Damage [%] in corn varieties: Dea” value (corn (Zea mays) [1]; herbicide 200 g a.i./ha) was 35%, the “Damage [%] in corn varieties: Felix” value (corn (Zea mays) [1]; herbicide 25 g a.i./ha) was 25% and the “Damage [%] in corn varieties: Felix” value (corn (Zea mays) [1]; herbicide 50 g a.i./ha) was 55%. The “Damage [%] in corn varieties: Felix” value (corn (Zea mays) [1]; herbicide 100 g a.i./ha) was 65%, the “Damage [%] in corn varieties: Felix” value (corn (Zea mays) [1]; herbicide 200 g a.i./ha) was 70% and the “Damage [%] in corn varieties: Mutin” value (corn (Zea mays) [1]; herbicide 25 g a.i./ha) was 15%. The “Damage [%] in corn varieties: Mutin” value (corn (Zea mays) [1]; herbicide 50 g a.i./ha) was 30%, the “Damage [%] in corn varieties: Mutin” value (corn (Zea mays) [1]; herbicide 100 g a.i./ha) was 60% and the “Damage [%] in corn varieties: Mutin” value (corn (Zea mays) [1]; herbicide 200 g a.i./ha) was 65%. For the same compound, the “Damage in corn [%] Felix variety” value (corn (Zea mays) [2]) was 75%.
In the case of `COP(=S)(OC)SCC(=O)N(c1ccc(Cl)cc1)C(C)C` [H9, anilofos], the “Damage [%] ORSA-T” value [3] was 50%.
For `CCOC(=O)[C@@H](C)Oc1ccc(Oc2nc3ccc(Cl)cc3o2)cc1` [H1, fenoxaprop-P-ethyl], the “Damage [%] ORSA” value (Oryza sativa (rice)) was 80%, the “Damage [%] HV” value (Hordeum vulgare (barley); herbicide 100 g of a.i./ha, 4-leaf stage, assessment after 4 weeks) was 80% and the “Damage [%] HV” value (Hordeum vulgare (barley); herbicide 200 g of a.i./ha, 3-leaf stage, assessment after 2-3 weeks) was 85%. The “Damage [%] HV” value (Hordeum vulgare (barley); herbicide 200 g of a.i./ha, 4-leaf stage, assessment after 4 weeks) was 90%, the “Damage [%] HV” value (Hordeum vulgare (barley); herbicide 400 g of a.i./ha, 4-leaf stage, assessment after 4 weeks) was 98% and the “Damage [%] TD” value ([4]; herbicide 100 g of a.i./ha) was 95%. For the same compound, the “Damage [%] TD” value ([4]; herbicide 200 g of a.i./ha) was 95%, the “Damage [%] TD” value ([4]; herbicide 400 g of a.i./ha) was 98% and the “Damage [%] TA” value ([5]; herbicide 100 g of a.i./ha) was 10%. For the same compound, the “Damage [%] TA” value ([5]; herbicide 200 g of a.i./ha) was 30% and the “Damage [%] TA” value ([5]; herbicide 400 g of a.i./ha) was 40%.
`COC(=O)c1ccc(I)cc1S(=O)(=O)NC(=O)Nc1nc(C)nc(OC)n1.[Na]` [H3, methyl 4-iodo-2-[3-(4-methoxy-6-methyl-1,3,5-triazin-2-yl)ureidosulfonyl]benzoate, sodium salt] was tested, and the “Damage [%] TA” value ([5]; herbicide 12 g of a.i./ha) was 15%, the “Damage [%] TA” value ([5]; herbicide 25 g of a.i./ha) was 80% and the “Damage [%] TA” value ([5]; herbicide 50 g of a.i./ha) was 70%.
`COc1cc(OC)nc(Oc2cccnc2C(=O)OCc2ccccc2)n1` [H4, benzyl 3-(4,6-dimethoxypyrimidin-2-yloxy)pyridine-2-carboxylate] was tested, and the “Damage to corn [%] Alois variety” value (corn (Zea mays) [1]; herbicide 38 g of a.i./ha) was 20%, the “Damage to corn [%] Felix variety” value (corn (Zea mays) [1]; herbicide 38 g of a.i./ha) was 0% and the “Damage to corn [%] Alois variety” value (corn (Zea mays) [1]; herbicide 75 g of a.i./ha) was 40%. The “Damage to corn [%] Felix variety” value (corn (Zea mays) [1]; herbicide 75 g of a.i./ha) was 30%, the “Damage to corn [%] Alois variety” value (corn (Zea mays) [1]; herbicide 150 g of a.i./ha) was 55% and the “Damage to corn [%] Felix variety” value (corn (Zea mays) [1]; herbicide 150 g of a.i./ha) was 50%. For the same compound, the “Damage to corn [%] Alois variety” value (corn (Zea mays) [1]; herbicide 300 g of a.i./ha) was 60% and the “Damage to corn [%] Felix variety” value (corn (Zea mays) [1]; herbicide 300 g of a.i./ha) was 60%.
